Test results taken from ChEMBL document CHEMBL5727042, “Heteroaromatic compounds as BTK inhibitors” (2018).

Target: T1, Tyrosine-protein kinase Tec (Homo sapiens, UniProt P42680)
T1 sequence (P42680 whole entry): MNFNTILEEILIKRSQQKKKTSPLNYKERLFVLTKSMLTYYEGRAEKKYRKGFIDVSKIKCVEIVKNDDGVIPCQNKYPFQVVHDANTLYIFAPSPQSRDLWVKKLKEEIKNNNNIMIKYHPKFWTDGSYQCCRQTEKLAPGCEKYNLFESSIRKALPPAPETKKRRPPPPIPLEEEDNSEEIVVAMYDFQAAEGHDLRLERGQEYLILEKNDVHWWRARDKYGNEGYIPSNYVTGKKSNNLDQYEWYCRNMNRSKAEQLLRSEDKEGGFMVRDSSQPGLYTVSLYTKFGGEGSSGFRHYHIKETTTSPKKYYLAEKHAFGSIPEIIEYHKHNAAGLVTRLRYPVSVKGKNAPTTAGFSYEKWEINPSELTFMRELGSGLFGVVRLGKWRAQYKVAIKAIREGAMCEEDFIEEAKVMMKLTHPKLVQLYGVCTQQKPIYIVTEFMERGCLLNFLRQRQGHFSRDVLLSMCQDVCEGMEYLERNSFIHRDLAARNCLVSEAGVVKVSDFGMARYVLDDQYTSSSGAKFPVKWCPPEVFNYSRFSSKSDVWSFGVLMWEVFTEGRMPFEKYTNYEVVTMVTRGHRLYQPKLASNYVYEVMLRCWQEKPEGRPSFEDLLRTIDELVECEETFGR
Test: Lanthscreen Eu Kinase Binding Assay : Lanthscreen Eu Kinase Binding assay […] is performed as described above for BTK except that 1 nM human recombinant full length TEC (His-tagged) kinase and 1 nM Alexa Fluor647-labeled Kinase Tracer #178 were used instead.Representative compounds of the present invention are assessed for inhibition of BTK, BMX, and TXK measuring phosphorylation of a …

IC50 [nM] | Structure (SMILES)
130 | CC#CC(=O)N1CC[C@]2(C1)C[C@H](n1nc(-c3cnn(Cc4cc(C(F)(F)F)ccc4Cl)c3)c(C(N)=O)c1N)C2
1200 | CC#CC(=O)N1CC[C@]2(C1)C[C@H](n1nc(-c3cnn(Cc4cc(C(F)(F)F)ccc4OC)c3)c(C(N)=O)c1N)C2
38 | CC#CC(=O)N1CC[C@]2(C1)C[C@H](n1nc(-c3cnn(Cc4ccc(Cl)c(C(F)(F)F)c4)c3)c(C(N)=O)c1N)C2
45 | CC#CC(=O)N1CC[C@]2(C1)C[C@H](n1nc(-c3cnn(Cc4cccc(C(F)(F)F)c4Cl)c3)c(C(N)=O)c1N)C2
